We go through one molecule from patent US20230218631A1 (priority 2020, published 2023).

The test concerns EHMT2/G9A, H3K9me2.
Where [1] appears, read: 4-week CIE vs Air, same animals, FIG. 1C.

The structures appear in SMILES notation.

In the case of `CCO` [ethanol], under setting [1], the “EHMT2/G9A in dorsal striatum” value was “no changes” and the “H3K9me2 in dorsal striatum” value is listed as “no changes”. Moreover, under “4-week CIE vs Air, FIG. 1B”, the “reduction of H3K9me2 levels in NAc” value is given as about 40% and the “total histone H3 protein in NAc” value is reported as “no changes”. Under “4 weeks CIE vs Air, immunoblot, FIG. 1B”, the “reduction in NAc EHMT2/G9A protein levels” value is over 30%.
